From PubChem BioAssay (NCI)
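Cultured in 96-well plates, cells were exposed to test compound for 48 hours across five concentrations. TGI: total growth inhibition.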

Experiments:
Assay in all cases: NCI tumour cell line growth inhibition, 48 h
[1] = test system: SW-620 colon
[2] = test system: P388/ADR leukemia
[3] = test system: HL-60(TB) leukemia
[4] = test system: XF 498 CNS
[5] = test system: SN12K1 renal
[6] = test system: SN12C renal
[7] = test system: HOP-92 NSCLC
[8] = test system: CCRF-CEM leukemia
[9] = test system: SNB-75 CNS
[10] = test system: HOP-62 NSCLC
[11] = test system: LOX IMVI melanoma
[12] = test system: MALME-3M melanoma
[13] = test system: KM20L2 colon
[14] = test system: U251 CNS
[15] = test system: NCI-H460 lung
[16] = test system: A549 NSCLC
[17] = test system: OVCAR-5 ovarian
[18] = test system: HCT-116 colon
[19] = test system: CAKI-1 renal
[20] = test system: MCF7 breast
[21] = test system: SF-295 CNS
[22] = test system: A498 renal
[23] = test system: SK-MEL-2 melanoma
[24] = test system: SK-OV-3 ovarian
[25] = test system: NCI/ADR-RES ovarian
[26] = test system: DMS 273 small cell lung
[27] = test system: M19-MEL melanoma
[28] = test system: COLO 205 colon
[29] = test system: SF-268 CNS
[30] = test system: SK-MEL-28 melanoma
[31] = test system: MOLT-4 leukemia
[32] = test system: IGROV1 ovarian
[33] = test system: DLD-1 colon
[34] = test system: UACC-62 melanoma
[35] = test system: HT29 colon
[36] = test system: OVCAR-8 ovarian
[37] = test system: EKVX NSCLC
[38] = test system: NCI-H226 lung
[39] = test system: OVCAR-4 ovarian
[40] = test system: UACC-257 melanoma
[41] = test system: SF-539 CNS
[42] = test system: SNB-78 CNS
[43] = test system: KM12 colon
[44] = test system: SNB-19 CNS
[45] = test system: HCC-2998 colon
[46] = test system: P388 leukemia
[47] = test system: OVCAR-3 ovarian
[48] = test system: SK-MEL-5 melanoma
[49] = test system: UO-31 renal
[50] = test system: K-562 leukemia
[51] = test system: RXF 393 renal
[52] = test system: NCI-H522 lung
[53] = test system: NCI-H23 lung
[54] = test system: HOP-18 NSCLC
[55] = test system: HCT-15 colon
[56] = test system: RPMI-8226 leukemia

Measured: TGI

C[C@H]1COC(c2ccccn2)=N1
> 100 µM: all assays above
